Source: PubChem BioAssay (NCI)
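Growth conditions: 96-well plates. Treatment: test compound, 48 hours, 5 concentrations. Analysis: linear interpolation between bracketing concentrations; unreached endpoints set to highest concentration. The concentration for full growth arrest is given as TGI.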

How the values were obtained:
Assay in all cases: growth of human tumour cells (NCI), 48 h
[1] = test system: NCI-H460 lung
[2] = test system: HL-60(TB) leukemia
[3] = test system: PC-3 prostate
[4] = test system: NCI-H226 lung
[5] = test system: 786-0 renal
[6] = test system: UO-31 renal
[7] = test system: HCT-15 colon
[8] = test system: ACHN renal
[9] = test system: HOP-92 NSCLC
[10] = test system: T-47D breast
[11] = test system: OVCAR-8 ovarian
[12] = test system: NCI/ADR-RES ovarian
[13] = test system: RXF 393 renal
[14] = test system: M14 melanoma
[15] = test system: DU-145 prostate
[16] = test system: SK-MEL-2 melanoma
[17] = test system: MDA-MB-231 breast
[18] = test system: A549 NSCLC
[19] = test system: A498 renal
[20] = test system: SNB-19 CNS
[21] = test system: HCT-116 colon
[22] = test system: SW-620 colon
[23] = test system: COLO 205 colon
[24] = test system: HT29 colon
[25] = test system: SK-MEL-28 melanoma
[26] = test system: BT-549 breast
[27] = test system: MCF7 breast
[28] = test system: NCI-H23 lung
[29] = test system: OVCAR-4 ovarian
[30] = test system: SK-OV-3 ovarian
[31] = test system: K-562 leukemia
[32] = test system: SF-539 CNS
[33] = test system: CAKI-1 renal
[34] = test system: NCI-H522 lung
[35] = test system: EKVX NSCLC
[36] = test system: TK-10 renal
[37] = test system: KM12 colon
[38] = test system: UACC-62 melanoma
[39] = test system: MALME-3M melanoma
[40] = test system: MDA-MB-435
[41] = test system: CCRF-CEM leukemia
[42] = test system: OVCAR-3 ovarian
[43] = test system: U251 CNS
[44] = test system: IGROV1 ovarian
[45] = test system: RPMI-8226 leukemia
[46] = test system: MDA-N
[47] = test system: SN12C renal
[48] = test system: LOX IMVI melanoma
[49] = test system: SF-295 CNS
[50] = test system: SF-268 CNS
[51] = test system: SK-MEL-5 melanoma
[52] = test system: UACC-257 melanoma
[53] = test system: HOP-62 NSCLC
[54] = test system: MOLT-4 leukemia
[55] = test system: SNB-75 CNS
[56] = test system: OVCAR-5 ovarian
[57] = test system: HCC-2998 colon
[58] = test system: HS 578T breast
[59] = test system: SR leukemia

In the case of CC(=O)OCC1OC(OC2CC3C(C)(C)C(O)CC[C@]3(C)C3CCC45CC4(CCC5[C@@H](C)CC(O)C(O)C(C)(C)O)[C@]23C)C(O)C(O)C1O (stereo partly drawn), the TGI [1] is reported as > 10 µM, the TGI [2] is reported as > 10 µM and the TGI [3] is reported as > 10 µM. For the same molecule, the TGI [4] was > 10 µM, the TGI [5] was > 10 µM and the TGI [6] was > 10 µM. The TGI [7] was > 10 µM, the TGI [8] was > 10 µM and the TGI [9] was > 10 µM. The TGI [10] was > 10 µM, the TGI [11] was > 10 µM and the TGI [12] was > 10 µM. The TGI [13] was > 10 µM, the TGI [14] was > 10 µM and the TGI [15] was > 10 µM. The TGI [16] was > 10 µM, the TGI [17] was > 10 µM and the TGI [18] was > 10 µM. For the same molecule, the TGI [19] was > 10 µM, the TGI [20] was > 10 µM and the TGI [21] was > 10 µM. The TGI [22] was > 10 µM, the TGI [23] was > 10 µM and the TGI [24] was > 10 µM. The TGI [25] was > 10 µM, the TGI [26] was > 10 µM and the TGI [27] was > 10 µM. The TGI [28] was > 10 µM, the TGI [29] was > 10 µM and the TGI [30] was > 10 µM. The TGI [31] was > 10 µM, the TGI [32] was > 10 µM and the TGI [33] was > 10 µM. For the same molecule, the TGI [34] was > 10 µM, the TGI [35] was > 10 µM and the TGI [36] was > 10 µM. For the same molecule, the TGI [37] was > 10 µM, the TGI [38] was > 10 µM and the TGI [39] was > 10 µM. The TGI [40] was > 10 µM, the TGI [41] was > 10 µM and the TGI [42] was > 10 µM. The TGI [43] was > 10 µM, the TGI [44] was > 10 µM and the TGI [45] was > 10 µM. For the same molecule, the TGI [46] was > 10 µM, the TGI [47] was > 10 µM and the TGI [48] was > 10 µM. The TGI [49] was > 10 µM, the TGI [50] was > 10 µM and the TGI [51] was > 10 µM. The TGI [52] was > 10 µM, the TGI [53] was > 10 µM and the TGI [54] was > 10 µM. The TGI [55] was > 10 µM, the TGI [56] was > 10 µM and the TGI [57] was > 10 µM. The TGI [58] was > 10 µM.

S=c1[nH]c2c(Cl)c(Cl)c(Cl)c(Cl)c2[nH]1 gave a TGI [1] of 40.6 µM, a TGI [2] of 13 µM and a TGI [3] of 77.6 µM. For the same molecule, the TGI [5] was 63.3 µM, the TGI [6] was 43.2 µM and the TGI [7] was 53.5 µM. For the same molecule, the TGI [8] was 40.7 µM, the TGI [9] was 53.6 µM and the TGI [10] was > 100 µM. The TGI [11] was 57.4 µM, the TGI [12] was 46.5 µM and the TGI [13] was 35.4 µM. For the same molecule, the TGI [14] was 54.3 µM, the TGI [15] was > 100 µM and the TGI [17] was 47.9 µM. The TGI [18] was > 100 µM, the TGI [19] was 46.5 µM and the TGI [20] was 81.3 µM. For the same molecule, the TGI [21] was 46.8 µM, the TGI [22] was 49.2 µM and the TGI [23] was 32.3 µM. The TGI [24] was 48.1 µM, the TGI [26] was 52.4 µM and the TGI [27] was 40.5 µM. The TGI [28] was > 100 µM, the TGI [29] was 22.6 µM and the TGI [30] was 55.3 µM. It also gave a TGI [31] of 38.4 µM, a TGI [32] of 26.3 µM and a TGI [33] of 64.7 µM. For the same molecule, the TGI [34] was 3.71 µM, the TGI [35] was 37.4 µM and the TGI [36] was 55.4 µM. The TGI [37] was 33.8 µM, the TGI [38] was 33.3 µM and the TGI [39] was 38.5 µM. It also gave a TGI [40] of 48.8 µM, a TGI [41] of 19.5 µM and a TGI [42] of 97.3 µM. For the same molecule, the TGI [43] was > 100 µM, the TGI [44] was 37.8 µM and the TGI [45] was 30.1 µM. For the same molecule, the TGI [46] was 51.4 µM, the TGI [47] was 47 µM and the TGI [48] was 40.8 µM. For the same molecule, the TGI [49] was 47.1 µM, the TGI [50] was 42.7 µM and the TGI [51] was 37.2 µM. The TGI [52] was 46.4 µM, the TGI [53] was 80.2 µM and the TGI [54] was 78 µM. The TGI [56] was 65 µM, the TGI [57] was 23.6 µM and the TGI [58] was 69.4 µM.

With CN1C(=O)C2CCCC(=O)N2c2cccnc21 (stereo not drawn) the TGI [1] was > 100 µM, the TGI [2] was > 100 µM and the TGI [4] was > 100 µM. For the same molecule, the TGI [5] was > 100 µM, the TGI [6] was > 100 µM and the TGI [7] was > 100 µM. For the same molecule, the TGI [8] was > 100 µM, the TGI [10] was > 100 µM and the TGI [11] was > 100 µM. The TGI [12] was > 100 µM, the TGI [15] was > 100 µM and the TGI [16] was > 100 µM. The TGI [59] was > 100 µM, the TGI [17] was > 100 µM and the TGI [18] was > 100 µM. For the same molecule, the TGI [20] was > 100 µM, the TGI [21] was > 100 µM and the TGI [22] was > 100 µM. For the same molecule, the TGI [23] was > 100 µM, the TGI [24] was > 100 µM and the TGI [25] was > 100 µM. The TGI [26] was > 100 µM, the TGI [27] was > 100 µM and the TGI [28] was > 100 µM. For the same molecule, the TGI [29] was > 100 µM, the TGI [31] was > 100 µM and the TGI [32] was > 100 µM. The TGI [33] was > 100 µM, the TGI [34] was > 100 µM and the TGI [35] was > 100 µM. The TGI [36] was > 100 µM, the TGI [37] was > 100 µM and the TGI [38] was > 100 µM. The TGI [39] was > 100 µM, the TGI [40] was > 100 µM and the TGI [41] was > 100 µM. For the same molecule, the TGI [42] was > 100 µM, the TGI [43] was > 100 µM and the TGI [44] was > 100 µM. For the same molecule, the TGI [45] was > 100 µM, the TGI [46] was > 100 µM and the TGI [47] was > 100 µM. For the same molecule, the TGI [48] was > 100 µM, the TGI [49] was > 100 µM and the TGI [50] was > 100 µM. The TGI [51] was > 100 µM, the TGI [52] was > 100 µM and the TGI [53] was > 100 µM. The TGI [54] was > 100 µM, the TGI [57] was > 100 µM and the TGI [58] was > 100 µM.

With COc1ccc(-c2cc3ccccc3oc2=O)cc1OC the TGI [2] was > 100 µM, the TGI [4] was > 100 µM and the TGI [5] was > 100 µM. The TGI [6] was > 100 µM, the TGI [7] was > 100 µM and the TGI [8] was > 100 µM. For the same molecule, the TGI [9] was > 100 µM, the TGI [10] was > 100 µM and the TGI [11] was > 100 µM. The TGI [12] was > 100 µM, the TGI [13] was > 100 µM and the TGI [14] was > 100 µM. The TGI [15] was > 100 µM, the TGI [16] was > 100 µM and the TGI [59] was > 100 µM. For the same molecule, the TGI [17] was > 100 µM, the TGI [18] was > 100 µM and the TGI [19] was > 100 µM. For the same molecule, the TGI [20] was > 100 µM, the TGI [21] was > 100 µM and the TGI [22] was > 100 µM. The TGI [23] was > 100 µM, the TGI [24] was > 100 µM and the TGI [26] was > 100 µM. For the same molecule, the TGI [27] was > 100 µM, the TGI [28] was > 100 µM and the TGI [29] was > 100 µM. The TGI [30] was 71 µM, the TGI [31] was > 100 µM and the TGI [32] was > 100 µM. For the same molecule, the TGI [33] was > 100 µM, the TGI [34] was > 100 µM and the TGI [35] was > 100 µM. The TGI [36] was > 100 µM, the TGI [37] was > 100 µM and the TGI [38] was > 100 µM. The TGI [39] was > 100 µM, the TGI [40] was > 100 µM and the TGI [41] was > 100 µM. For the same molecule, the TGI [42] was > 100 µM, the TGI [43] was > 100 µM and the TGI [44] was > 100 µM. For the same molecule, the TGI [45] was > 100 µM, the TGI [46] was > 100 µM and the TGI [47] was > 100 µM. For the same molecule, the TGI [48] was > 100 µM, the TGI [49] was > 100 µM and the TGI [50] was > 100 µM. The TGI [51] was > 100 µM, the TGI [52] was > 100 µM and the TGI [53] was > 100 µM. For the same molecule, the TGI [54] was > 100 µM, the TGI [55] was > 100 µM and the TGI [56] was > 100 µM. For the same molecule, the TGI [58] was > 100 µM.
